Data: patent US12544375B2, “Small molecule therapeutic for parkinson's disease paired with a biomarker of therapeutic activity” (The Board of Trustees of the Leland Stanford Junior …, priority 2019, dated 2026)

How the values were obtained:
[1] = system: iPSC-derived dopaminergic neurons from PD patients; assay: Antimycin A stress-induced neurodegeneration of iPSC-derived dopaminergic neurons (TH, PI staining); format: cell-based, human; conditions: 5 μM for 30 hrs, 10 μM Antimycin A for 6 hrs, neurons from both PD patients
Experimental: FIG. 3A-FIG. 3D. Miro1 Reducer Rescues Parkinson's Neurodegeneration. (FIG. 3A) Fibroblasts were treated, lysed, and blotted as indicated. Band intensities are normalized to those of ATP5β from the same blots and compared to “Healthy-2, no treatment”. n=4. (FIG. 3B-FIG. 3C) iPSC-derived neurons were treated as indicated and immunostained with anti-TH (FIG. 3B) or stained with PI and Dapi (FIG. 3C). Both Antimycin A and Miro1 Reducer were dissolved in ethanol. Neurons were pretreated with Miro1 Reducer 24 hrs before the application of Antimycin A for another 6 hrs. The same volume of ethanol was applied at the same time in negative controls. (FIG. 3B) The density of TH-positive neurons is calculated in each condition under 20×, from 10 fields each experiment, 3-4 experiments. […] (FIG. 3C) The percentage of PI-positive cells out of total cells (Dapi-positive) is calculated. n=20 fields each experiment, 4 experiments. For (FIG. 3B-FIG. 3C), comparisons with “Wild-type-I, no treatment” except otherwise indicated. […] Graphs of Mean±S.E.M show the percent of time each mitochondrion is in motion (red and blue, compared to “Wild-type-I, before treatment”), and the mitochondrial intensity normalized to that of the same axonal region at “0 min” and expressed as a fraction of the mean of “Wild-type-I, 0 min”. n=33-77 mitochondria from 5-8 axons from 5-8 separate transfections. […]

[2] = system: fibroblasts; assay: Cytotoxicity: mitochondrial matrix and cytosolic proteins in fibroblasts with CCCP; format: cell-based, human; conditions: combined with CCCP treatment for 6 hrs
Experimental: FIG. 2A-FIG. 2F. Miro1 Reducer Eliminates the Miro1 Defect in PD Fibroblasts. (FIG. 2A) Chemical properties of Miro1 Reducer. (FIG. 2B) Wild-type flies (w^1118) were fed with DMSO alone (0 μM Miro1 Reducer) or Miro1 Reducer in DMSO at 250 μM for 7 days, and lysed and blotted as indicated. The band intensities are normalized to those of Tubulin from the same blots. n=4. (FIG. 2C-FIG. 2E) Fibroblasts were treated, lysed, and blotted as indicated. (FIG. 2C) Band intensities are normalized to those of GAPDH from the same blots and compared to “Healthy-1, no treatment” except otherwise indicated. n=4. (FIG. 2D) Band intensities are normalized to those of ATP5β from the same blots and expressed as a percentage of the mean of “0 μM Miro1 Reducer with CCCP”. Mean±S.E.M is shown. n=3. (FIG. 2E) Band intensities are normalized to those of GAPDH from the same blots and compared to “Healthy-1, no CCCP, no MG132” except otherwise indicated. n=4. (FIG. 2F) Healthy-1 and PD-2 fibroblasts were transfected as indicated, and immunostained with anti-Myc (Miro1, green) and stained with Dapi (blue). The Miro1 intensity is normalized to that of mito-dsRed from the same cell and quantified across 37-62 cells from 5 fields each transfection, 3 independent transfections. Scale bars: 50 μm. For (FIG. 2C-FIG. 2F), both CCCP and Miro1 Reducer were dissolved in DMSO. […]

Question: How did the “stress-induced neurodegeneration of dopaminergic neurons” value [1] turn out when `O=C(Nc1ccc(Nc2cc(-n3ccnc3)ncn2)cc1)Nc1cccc(F)c1` [Miro1 Reducer] was run?
Answer: The value was “completely rescued”.

Question: And the “concentrations impacting multiple mitochondrial matrix and cytosolic proteins, indicating cytotoxicity” value [2]?
Answer: The value was greater than 25 µM.
